Literature values in patent publication US10806735B2, “Use of neutrophil elastase inhibitors in liver disease” (pH Pharma Co., Ltd., priority 2018, dated 2020).

System: HFD-fed mice
Details: cited from earlier work

SMILES: CC(C)[C@@H]1C(=O)N(S(C)(=O)=O)[C@@H]2CCN(C(=O)/C=C/CN3CCCCC3)[C@H]21.Cl [GW311616A]
- glucose tolerance (HFD mice (Talukdar 2012)): improved glucose tolerance
- insulin sensitivity in glucose clamp/tracer studies (HFD mice (Talukdar 2012)): increased peripheral and hepatic insulin sensitivity
- insulin resistance and body weight gain (HFD-fed mice (Mansuy-Aubert 2013)): reversed insulin resistance and body weight gain
